# According to US8697081B2, “Method of modulating neovascularization” (The Regents of the University of Michigan, priority 2008, dated 2014):
# Legend:
# Assay type in all cases: cell-based
# [1] = tested on: Human umbilical vein endothelial cells; test: Nesprin distribution at the nuclear envelope in 3-D fibrin gels; details: VEGF/HGF-stimulated
# Description: Physical interactions between cytoskeletal networks and the nucleus are mediated by a family of Klarsicht, ANC-1, Syne homology (KASH) domain-containing proteins. The C-terminal domains of the proteins are embedded within the outer nuclear membrane, where they interact with the inner nuclear membrane via members of the SUN protein family (Crisp et al., 2006. J. Cell Biol., 172: 41-53; Dechat et al., supra; Starr, supra; Stewart et al., supra; Wilhelmsen et al., 2006. J. Cell Biol., 171: 799-810). In turn, SUN proteins span the inner nuclear membrane to establish binding interactions with a scaffold of lamin family members and nuclear pore complexes (Dechat et al., supra; Starr, supra; Stewart et al., supra). To determine whether this interaction plays a role in the nuclear morphology regulation by ECM remodeling, expression of nesprins-1 and 2 (also termed Syne-1 and 2) nesprin-3 was examined in 3-D-embedded endothelial cells. Nesprins-1 and 2 bind F-actin, while nesprin-3 indirectly interacts with intermediate filaments via binding of plectin (Crisp and Burke, 2008. FEBS Lett., 582: 2023-2032; Starr, supra; Stewart et al., supra).
# human endothelial cells [2] = test: Fn matrix assembly by endothelial cells in 3-D fibrin gel, confocal laser microscopy
# Description: Endothelial cells were isolated from human umbilical cord veins by collagenase digestion and cultured in Medium 199 (Gibco) containing 20% human serum, 50 μg/ml endothelial cell growth supplement (BD Biosciences), 100 U/ml penicillin, and 100 μg/ml streptomycin (Hiraoka et al. 1998. Cell, 95(3): 365-377). For 2-D/3-D culture, endothelial cell monolayers (no later than third passage) were suspended by mild trypsinization and dispersed within or plated atop fibrin (3 mg/ml) or collagen (2.2 mg/ml) gels (prepared as described in Hiraoka, supra, and Hotary et al. 2003. Cell, 114(1): 33-45), and stimulated with a cocktail of growth factors including 100 ng/ml human vascular endothelial growth factor (Genentech), 50 ng/ml human hepatocyte growth factor (Genentech), 10 ng/ml human TGFα (Biosource), 0.5 ng/ml TGFβ1 (R and D Systems), and 100 μg/ml heparin (Sigma). In selected experiments, endothelial cell spheroids were prepared and suspended in 3-D fibrin gels.
# The effect of Fn matrix assembly, or lack thereof, on endothelial cell function during neovascularization was assessed. Human serum was depleted of Fn by gelatin-sepharose affinity chromatography (Amersham) and supplemented with either 20 μg/ml of human plasma Fn (Sigma) or FITC-labeled Fn. […]
# (Chernousov et al. 1991. J. Biol. Chem., 266(17): 10851-10858; Tomasini-Johansson et al. 2001. J. Biol. Chem., 276(26): 23430-23439; Mao and Schwarzbauer. 2005. Matrix Biol., 24(6): 389-399; and Tomasini-Johansson et al. 2006. Matrix Biol., 25(5): 282-293). […] Cell number in 3-D cultures was determined by hemacytometry after dissolving gels with 2 mg/ml bacterial collagenase (Worthington) while the number of patent tubules was determined in randomly selected cross-sections. Fn matrix assembly and cell morphology were monitored by confocal laser microscopy. To examine cell migration, endothelial cells were embedded in a 100 μl fibrin gel for 2 hours, then placed within a 500 μl gel for 8 days in the presence of Del29, FUD, control IgG, or L8, after which migration from the inner gel was assessed. […]
# human endothelial cells [3] = test: Intracellular nanorheology (bead tracking) of 3-D-embedded endothelial cells
# Description: Endothelial cells cultured atop highly malleable surfaces retain a spherical configuration, fail to organize stress fibers, and are unable to exert tractional forces—a phenotype identical to that observed in 3-D-embedded, Fn matrix assembly-incompetent endothelial cells. A cell's internal stiffness is a viscoelastic property governed by cytoskeletal assembly, actin crosslinking, and the production of actomyosin-dependent stress. Internal stiffness changes as a function of the perceived stiffness of the surrounding substratum (Solon et al. 2007. Biophys. J., 93(12): 4453-4461). Therefore, the micromechanical properties of 3-D-embedded endothelial cells were monitored via intracellular nanorheology.
# Prior to embedding in the 3-D fibrin matrix, endothelial cells were ballistically microinjected with 100 nm polystyrene beads to circumvent the endocytic pathway and subsequent directed motion of the beads. After 3 days of incubation, the beads dispersed in the cytoplasm and their centroids were tracked with high spatial and temporal resolution using fluorescence microscopy. […] Elastic moduli, which quantify the local resistance of the cytoplasm against small random forces acting on the surface of the beads, were derived from MSD curves to quantify cellular mechanical properties.
# In the absence of Fn fibrillogenesis, an impaired ability of embedded endothelial cells to generate myosin-dependent forces and increase cytoplasmic stiffness was predicted to affect both Fn unfolding, as well as the ability of the cells to properly register the mechanical properties of the surrounding substratum (Wu et al. 1995. Cell, 83(5): 715-724; Zhong et al. 1998. J. Cell Biol., 141(2): 539-551; Baneyx et al. 2002. Proc. Natl. Acad. Sci. USA, 99(8): 5139-5143; Discher et al. 2005. Science, 310(5751): 1139-1143; Engler, supra; and Yoneda, supra). As such, the rheologic and functional characteristics of endothelial cells were assessed in the presence of the specific myosin ATPase inhibitor, blebbistatin. […]
Compound,nesprin distribution at the nuclear envelope [1],"pericellular Fn matrix assembly (human endothelial cells [2]; 2 days, 50 μM blebbistatin)","cytoplasmic stiffness (human endothelial cells [3]; 3-D fibrin gel, 50 μM blebbistatin)","Fn matrix assembly (Fn polymerization) (human endothelial cells [2]; growth factor cocktail, FUD or Del29 250 nM, L8 or 9D2 100 μg/ml, 70 kDa Fn fragment 75 μg/ml)","mean square displacement (MSD) of the beads (human endothelial cells [3]; 3-D fibrin matrix, 3 days, relative to control cells)","elastic modulus of the cytoplasm (human endothelial cells [3]; 3-D fibrin matrix, versus control cells, P<0.001)"
CNC(=O)[C@H](Cc1c[nH]c2ccccc12)NC(=O)[C@@H](CC(=O)NO)CC(C)C [GM6001],irregular nesprin distributions,–,–,–,–,–
Cc1ccc2c(c1)C(=O)C1(O)CCN(c3ccccc3)C1=N2 (stereo not shown) [blebbistatin],–,failed to assemble,failed to increase,–,–,–
"FUD: 49-residue functional upstream domain of Streptococcus pyogenes F1 adhesion protein, SEQ ID NO: 10; fibronectin fibril assembly inhibitor (KDQSPLAGESGETEYITEVYGNQQNPVDIDKKLPNETGFSGNMVETEDT; Streptococcus pyogenes; Functional Upstream Domain (FUD) of F1 adhesion protein)",irregular nesprin distributions,–,–,attenuated,significantly increased,significantly lower
